Reference: patent publication US11857544B2, “Composition or method including (t)ew-7197 for treating or preventing corneal endothelial diseases” (THE DOSHISHA, priority 2017, dated 2024)

How the values were obtained:
Col8a2 knock-in mice = assay: Corneal endothelial cell density after eye drops in Col8a2 knock-in mice (Example 6, 12 weeks); type: in vivo; details: eye drop group (0.02%, 0.1%)
Description: 5 μL of 0.02% (about 0.5 mM) EW-7197 eye drop, 0.1% (about 2.5 mM) EW-7197 eye drop, or a base agent (DMSO containing phosphate buffer) was administered as an eye drop to both eyes of 4-month-old alpha 2 collagen 8 gene (Col8a2) knock-in mice 4 times a day for 12 weeks. A surfactant was added to the base agent as needed. Those skilled in the art can use an appropriate and suitable surfactant (Kenji Motose (1984). “Tenganzai” [Eye drops] Nanzando; International Pharmaceutical Excipients Council Japan (2016). “Iyakuhin Tenkabutsu Jiten” [Pharmaceutical Excipient Encyclopedia] Yakuji Nippo, Limited). The corneal endothelial cell density was measured using a specular microscope KS3M (Konan Medical, Inc.) at before eye drops, and 3, 6, 9, and 12 weeks after eye drops. Mice were euthanized by intraperitoneally administering an excessive amount (200 mg/kg body weight or greater) of anesthetic injection Somnopentyl (Kyoritsu Seiyaku Corporation) 12 weeks after injection. After confirming cardiac arrest, both eye balls were harvested. The harvested eye balls were incised to prepare a corneal fragment. Immunostaining of fibronectin was performed. The immunostaining method was the following. Image-Pro (Nippon Roper K.K.) was used to analyze the area of fibronectin expression.

type I collagen = assay: Area of type I collagen expression by immunostaining, Col8a2 knock-in mice (Example 5); type: in vivo; details: 0.02% eye drop, 8 weeks
Description: 5 μL of 0.02% (about 0.5 mM) EW-7197 eye drop or a base agent (7% DMSO containing PBS) was administered as an eye drop to both eyes of 4-month-old alpha 2 collagen 8 gene (Col8a2) knock-in mice 4 times a day for 8 weeks. The corneal endothelial cell density was measured using a specular microscope KS3M (Konan Medical, Inc.) at before eye drops, and 2, 4, 6, and 8 weeks after eye drops. Mice were euthanized by intraperitoneally administering an excessive amount (200 mg/kg body weight or greater) of anesthetic injection Somnopentyl (Kyoritsu Seiyaku Corporation) 8 weeks after injection. After confirming cardiac arrest, both eye balls were harvested. The harvested eye balls were incised to prepare a corneal fragment. Immunostaining of type I collagen and fibronectin was performed as follows. Image-Pro (Nippon Roper K.K.) was used to analyze the area of type I collagen and fibronectin expression.
After immobilizing a mouse corneal fragment for 10 minutes at room temperature in 4% paraformaldehyde, 0.5% TritonX-100 was added and allowed to permeate for 5 minutes. 1% bovine serum albumin (BSA) was added and the fragment was incubated for 1 hour at room temperature. The corneal fragment was then immersed in a primary antibody solution and reacted overnight at 4° C. […]

SMILES: Cc1cccc(-c2[nH]c(CNc3ccccc3F)nc2-c2ccc3ncnn3c2)n1 [EW-7197, N-((4-([1,2,4]triazolo[1,5-a]pyridin-6-yl)-5-(6-methylpyridin-2-yl)-1H-imidazol-2-yl)methyl)-2-fluoroaniline]
- corneal endothelial density at the center section of the cornea (Col8a2 knock-in mice; up to week 6): tendency for suppressing a decrease
- corneal endothelial density at the center section of the cornea vs base agent eye drop group (Col8a2 knock-in mice; week 12): a significant difference in the corneal endothelial density at the center section of the cornea was not observed
- area of type I collagen expression compared to the base agent group (type I collagen): decreasing trend
